Where two headings read alike, the source gives them in different places. No end group written: not given here.
Columns and labels:
[1] = test system: haemolysis; assay: Haemolysis assay (in vitro toxicity testing); format: cell-based; details: summary of Table 6
Experimental: In addition, in vitro toxicity testing (haemolysis assays) indicates a lack of toxicity at levels well above MIC for some peptides, indicating potential for a wide therapeutic window (Table 6). […] Since increased net charge is known to be associated with higher levels of haemolysis, (Dhople and Nagaraj, Peptides 2005: 26: 217-225), this was not wholly unexpected.
Experiments were conducted to assess the percentage haemolysis against peptide concentration for peptides SEQ ID NOs: 4, 5, 6 and 7 against full length epidermicin (SEQ ID NO:10) and SEQ ID NO:12.

[2] = test system: P. aeruginosa; format: cell-based
Experimental: (§1) A series of derivatives of the NI0138-51 (SEQ ID NO:12) truncation were carried out with a view to maintaining stability of the helix and/or increasing net positive charge of the peptides (Table 3). Minimum inhibitory concentrations (MICs) were determined for each derivative against a range of Gram positive and Gram negative organisms by a modified 2-fold microtitre broth dilution method (Wu and Hancock, J Biol Chem 1999; 274: 29-35) (Table 2). […] This could not have been predicted.

[3] = test system: N. lactamica; format: cell-based
Experimental: as §1

[4] = test system: S aureus 1195; format: cell-based
Experimental: as §1

[5] = test system: E. coli; format: cell-based; details: for Average MIC: average of triplicate experiments, Table 5
Experimental: as §1

[6] = test system: S. aureus 1195; format: cell-based
Experimental: (§2) Experiments were conducted in which the full-length epidermicin peptide (51 amino acids, SEQ ID NO:10) was truncated to yield the derivatives shown in FIG. 1 (SEQ ID NOs:11 to 19). NI011-37 (SEQ ID NO:11) Is the region most similar to other peptides in the public domain, NI0138-51 (SEQ ID NO:12) is the region that is most unique with respect to other peptides in the public domain. All other truncations have been carried out by removing residues from the amino-terminal end of the peptide to each lysine residue (K). Lysine is important in antimicrobial peptides as it contributes to the net positive charge, which is thought to have a key role in the mode of action of ‘cationic’ peptides, like NI01 (SEQ ID NO:10).

[7] = test system: S. saprophyticus; format: cell-based
Experimental: as §2

[8] = test system: Vanc. resistant Enterococcus; format: cell-based
Experimental: as §2

[9] = test system: S. Hominis; format: cell-based
Experimental: as §2

[10] = test system: MRSA; format: cell-based, Staphylococcus aureus
Experimental: as §2

[11] = test system: Klebsiella (K. pneumoniae); format: cell-based
Experimental: as §1

[12] = test system: VISA; format: cell-based
Experimental: as §1

[13] = test system: Gram positive and negative bacteria; assay: Antimicrobial activity against drug-resistant pathogens, summary in words; format: cell-based; details: summary of Table 2
Experimental: as §1

[14] = test system: MRSA; format: cell-based, Staphylococcus aureus; remark: listed apart in the source
Experimental: as §1

Sequence | haemolytic activity / toxicity, in words [1] | MIC [2] | MIC [3] | MIC [4] | MIC ([5]; E. coli 50, Table 2) | MIC ([5]; E. coli 178, Table 2) | MIC ([5]; E. coli DH5α, Table 2) | MIC ([5]; E.coli 177, Table 2) | MIC [6] | MIC [7] | MIC [9] | other results
SFEWIYKQIKKLWAKKK [SEQ ID NO:7, SFEWIYKQIKKLWAKKK] | relatively low levels of haemolysis | 8 µg/mL | 37.3 µg/mL | 1.7 µg/mL | 4.3 µg/mL | 3.3 µg/mL | 4 µg/mL | 3 µg/mL |  |  |  | 
KGQKYVSLAWKHKGTILKWINAGQSFEWIYKQIKKLWA [SEQ ID NO:14] |  |  |  |  |  |  |  |  | 8 µg/mL | 8 µg/mL | 6 µg/mL | MIC [8]: 4 µg/mL
SFEWIYKQIKKLWA [SEQ ID NO:12, SFEWIYKQIKKLWA] | higher levels of haemolytic activity | 64 µg/mL | 10.6 µg/mL |  | 7 µg/mL | 5 µg/mL | 8 µg/mL | 5 µg/mL | 4 µg/mL | 4 µg/mL | 4 µg/mL | MIC [10]: 12 µg/mL; Average MIC [4]: 4 µg/mL; Average MIC ([5]; E. coli 49): 9 µg/mL; Average MIC ([5]; E. coli 50): 7 µg/mL; Average MIC ([5]; E. coli 177): 5 µg/mL; Average MIC ([5]; E. coli 178): 5 µg/mL; Average MIC ([5]; E. coli 187): 5 µg/mL; Average MIC ([5]; E. coli DH5a): 8 µg/mL
SFKWIYKQIKKLWA [SEQ ID NO:5, SFKWIYKQIKKLWA] | higher levels of haemolytic activity |  | 4.7 µg/mL | 1.2 µg/mL | 1.3 µg/mL | 1.3 µg/mL | 2 µg/mL | 2 µg/mL |  |  |  | 
SFKWIYKQPKKLWA [SEQ ID NO:21, SFKWIYKQPKKLWA] |  | >64 µg/mL |  | 42.7 µg/mL | 64 µg/mL | 64 µg/mL | 26.7 µg/mL | 53.3 µg/mL |  |  |  | MIC [11]: >64 µg/mL; MIC [12]: >64 µg/mL
SFEWIKYQIKKLWA [SEQ ID NO:2, SFEWIKYQIKKLWA] |  | >64 µg/mL | 37.3 µg/mL | 9 µg/mL | 27 µg/mL | 27 µg/mL | 17 µg/mL | 19 µg/mL |  |  |  | antimicrobial activity against Gram positive and negative bacteria, in words [13]: significantly reduced activity; Average MIC [4]: 9 µg/mL; Average MIC ([5]; E. coli 49): 24 µg/mL; Average MIC ([5]; E. coli 50): 27 µg/mL; Average MIC ([5]; E. coli 177): 19 µg/mL; Average MIC ([5]; E. coli 178): 27 µg/mL; Average MIC ([5]; E. coli 187): 17 µg/mL; Average MIC ([5]; E. coli DH5a): 17 µg/mL
MAAFMKLIQFLATKGQKYVSLAWKHKGTILKWINAGQ [SEQ ID NO:11] |  |  |  |  |  |  |  |  | 8 µg/mL | 8 µg/mL | 12 µg/mL | MIC [8]: 8 µg/mL
KGTILKWINAGQSFEWIYKQIKKLWA [SEQ ID NO:17] |  |  |  |  |  |  |  |  | 8 µg/mL | 4 µg/mL | 16 µg/mL | 
KLIQFLATKGQKYVSLAWKHKGTILKWINAGQSFEWIYKQIKK [SEQ ID NO:13] |  |  |  |  |  |  |  |  | 8 µg/mL | 8 µg/mL | 16 µg/mL | 
SFEWIYKQPKKLWA [SEQ ID NO:20, SFEWIYKQPKKLWA] |  | >64 µg/mL |  | >64 µg/mL | >64 µg/mL | >64 µg/mL | >64 µg/mL | >64 µg/mL |  |  |  | MIC [14]: >64 µg/mL; MIC [11]: >64 µg/mL; MIC [12]: >64 µg/mL

From patent US10273272B2, “Antimicrobial peptides” (Amprologix Limited, priority 2014, dated 2019)
